Assays:
MCF7 = assay: Growth inhibition of human MCF7 cells incubated for 48 hrs by sulforhodamine B assay; type: functional, cell-based; conditions: MCF7, 48 h
UO-31 [1] = assay: Growth inhibition of human UO31 cells assessed as cell growth at 0.1 uM incubated for 48 hrs by sulforhodamine B assay relative to control; type: functional; conditions: UO-31, 48 h, read-out: Activity
OVCAR-3 [2] = assay: Growth inhibition of human OVCAR3 cells assessed as cell growth at 0.01 uM incubated for 48 hrs by sulforhodamine B assay relative to control; type: functional; conditions: OVCAR-3, 48 h, read-out: Activity
UO-31 [3] = assay: Growth inhibition of human UO31 cells incubated for 48 hrs by sulforhodamine B assay; type: functional, cell-based; conditions: UO-31, 48 h
SF-295 = assay: Growth inhibition of human SF295 cells assessed as cell growth at 0.01 uM incubated for 48 hrs by sulforhodamine B assay relative to control; type: functional; conditions: SF-295, 48 h, read-out: Activity
A549 = assay: Growth inhibition of human A549/ATCC cells assessed as cell growth at 100 uM incubated for 48 hrs by sulforhodamine B assay relative to control; type: functional; conditions: A549, 48 h, read-out: Activity
Malme-3M = assay: Growth inhibition of human MALME-3M cells assessed as cell growth at 0.01 uM incubated for 48 hrs by sulforhodamine B assay relative to control; type: functional; conditions: read-out: Activity
UACC-257 = assay: Growth inhibition of human UACC257 cells assessed as cell growth at 100 uM incubated for 48 hrs by sulforhodamine B assay relative to control; type: functional; conditions: UACC-257, 48 h, read-out: Activity
MDA-MB-231 [4] = assay: Growth inhibition of human MDA-MB-231 cells assessed as cell growth at 0.01 uM incubated for 48 hrs by sulforhodamine B assay relative to control; type: functional; conditions: MDA-MB-231, 48 h, read-out: Activity
RPMI-8226 = assay: Growth inhibition of human RPMI8226 cells assessed as cell growth at 1 uM incubated for 48 hrs by sulforhodamine B assay relative to control; type: functional; conditions: RPMI-8226, 48 h, read-out: Activity
SK-MEL-2 [5] = assay: Growth inhibition of human SK-MEL-2 cells assessed as cell growth at 0.1 uM incubated for 48 hrs by sulforhodamine B assay relative to control; type: functional; conditions: SK-MEL-2, 48 h, read-out: Activity
MDA-MB-231 [6] = assay: Growth inhibition of human MDA-MB-231 cells assessed as cell growth at 0.1 uM incubated for 48 hrs by sulforhodamine B assay relative to control; type: functional; conditions: MDA-MB-231, 48 h, read-out: Activity
OVCAR-5 = assay: Growth inhibition of human OVCAR5 cells assessed as cell growth at 0.01 uM incubated for 48 hrs by sulforhodamine B assay relative to control; type: functional; conditions: OVCAR-5, 48 h, read-out: Activity
SK-MEL-2 [7] = assay: Growth inhibition of human SK-MEL-2 cells assessed as cell growth at 100 uM incubated for 48 hrs by sulforhodamine B assay relative to control; type: functional; conditions: SK-MEL-2, 48 h, read-out: Activity
HCT-116 = assay: Growth inhibition of human HCT116 cells assessed as cell growth at 0.1 uM incubated for 48 hrs by sulforhodamine B assay relative to control; type: functional; conditions: HCT-116, 48 h, read-out: Activity
OVCAR-3 [8] = assay: Growth inhibition of human OVCAR3 cells assessed as cell growth at 1 uM incubated for 48 hrs by sulforhodamine B assay relative to control; type: functional; conditions: OVCAR-3, 48 h, read-out: Activity
Hs-578T = assay: Growth inhibition of human Hs578T cells assessed as cell growth at 0.1 uM incubated for 48 hrs by sulforhodamine B assay relative to control; type: functional; conditions: read-out: Activity
PC-3 = assay: Growth inhibition of human PC3 cells assessed as cell growth at 0.1 uM incubated for 48 hrs by sulforhodamine B assay relative to control; type: functional; conditions: PC-3, 48 h, read-out: Activity
NCI-H23 = assay: Growth inhibition of human NCI-H23 cells incubated for 48 hrs by sulforhodamine B assay; type: functional, cell-based; conditions: NCI-H23, 48 h
CCRF-CEM = assay: Growth inhibition of human CCRF-CEM cells assessed as cell growth at 100 uM incubated for 48 hrs by sulforhodamine B assay relative to control; type: functional; conditions: read-out: Activity
HCT-15 = assay: Growth inhibition of human HCT15 cells incubated for 48 hrs by sulforhodamine B assay; type: functional, cell-based; conditions: HCT-15, 48 h
SF-539 = assay: Growth inhibition of human SF539 cells incubated for 48 hrs by sulforhodamine B assay; type: functional, cell-based; conditions: SF-539, 48 h
SK-MEL-2 [9] = assay: Growth inhibition of human SK-MEL-2 cells incubated for 48 hrs by sulforhodamine B assay; type: functional, cell-based; conditions: SK-MEL-2, 48 h
MDA-MB-435 = assay: Growth inhibition of human MDA-MB-435 cells assessed as cell growth at 100 uM incubated for 48 hrs by sulforhodamine B assay relative to control; type: functional; conditions: MDA-MB-435, 48 h, read-out: Activity
SK-MEL-28 = assay: Growth inhibition of human SK-MEL-28 cells incubated for 48 hrs by sulforhodamine B assay; type: functional, cell-based; conditions: SK-MEL-28, 48 h
ACHN = assay: Growth inhibition of human ACHN cells assessed as cell growth at 1 uM incubated for 48 hrs by sulforhodamine B assay relative to control; type: functional; conditions: read-out: Activity
HOP-62 = assay: Growth inhibition of human HOP62 cells incubated for 48 hrs by sulforhodamine B assay; type: functional, cell-based; conditions: HOP-62, 48 h
[10] = read-out: LC50 (the source's name)
[11] = read-out: pLC50 (the source's name) (converted)

Q: Which results are given for `O=C(Nc1cccc(-n2cc(-c3ccncc3)c(-c3cc(O)cc(Cl)c3)n2)c1)c1cc(C(F)(F)F)cc(C(F)(F)F)c1`?
A: GI50 (MCF7; read-out: GI50): 2.55 µM; LC50 (MCF7; read-out: LC50): > 100 µM; TGI (MCF7; read-out: TGI): > 100 µM; GI50 (MCF7; read-out: pGI50 (converted)): 2.88 µM; LC50 (MCF7; read-out: pLC50 (converted)): > 100 µM; TGI (MCF7; read-out: pTGI (converted)): > 100 µM; growth at 0.1 µM (UO-31 [1]): 70%; growth at 0.01 µM (OVCAR-3 [2]): 102%; IC50 (UO-31 [3]): 2.5 µM; GI50 (UO-31 [3]; read-out: GI50): 2.5 µM; CC50 (UO-31 [3]; [10]): > 100 µM; TGI (UO-31 [3]; read-out: TGI): > 100 µM; GI50 (UO-31 [3]; read-out: pGI50 (converted)): 2.51 µM; CC50 (UO-31 [3]; [11]): > 100 µM; TGI (UO-31 [3]; read-out: pTGI (converted)): > 100 µM; growth at 0.01 µM (SF-295): 92%; growth at 100 µM (A549): 4%; growth at 0.01 µM (Malme-3M): 97%; growth at 100 µM (UACC-257): -10%; growth at 0.01 µM (MDA-MB-231 [4]): 98%; growth at 1 µM (RPMI-8226): 53%; growth at 0.1 µM (SK-MEL-2 [5]): 93%; growth at 0.1 µM (MDA-MB-231 [6]): 94%; growth at 0.01 µM (OVCAR-5): 92%; growth at 100 µM (SK-MEL-2 [7]): -43%; growth at 0.1 µM (HCT-116): 100%; growth at 1 µM (OVCAR-3 [8]): 96%; growth at 0.1 µM (Hs-578T): 92%; growth at 0.1 µM (PC-3): 93%; GI50 (NCI-H23; read-out: GI50): 4.18 µM; LC50 (NCI-H23; read-out: LC50): > 100 µM; TGI (NCI-H23; read-out: TGI): 45.5 µM; GI50 (NCI-H23; read-out: pGI50 (converted)): 4.17 µM; LC50 (NCI-H23; read-out: pLC50 (converted)): > 100 µM; TGI (NCI-H23; read-out: pTGI (converted)): 46.8 µM; growth at 100 µM (CCRF-CEM): 1%; GI50 (HCT-15; read-out: GI50): 2.5 µM; CC50 (HCT-15; [10]): > 100 µM; TGI (HCT-15; read-out: TGI): 14.7 µM; GI50 (HCT-15; read-out: pGI50 (converted)): 2.57 µM; CC50 (HCT-15; [11]): > 100 µM; TGI (HCT-15; read-out: pTGI (converted)): 14.8 µM; GI50 (SF-539; read-out: GI50): 5.01 µM; CC50 (SF-539; [10]): > 100 µM; TGI (SF-539; read-out: TGI): 51.7 µM; GI50 (SF-539; read-out: pGI50 (converted)): 5.01 µM; CC50 (SF-539; [11]): > 100 µM; TGI (SF-539; read-out: pTGI (converted)): 51.3 µM; GI50 (SK-MEL-2 [9]; read-out: GI50): 3.28 µM; CC50 (SK-MEL-2 [9]; [10]): > 100 µM; TGI (SK-MEL-2 [9]; read-out: TGI): 95.1 µM; GI50 (SK-MEL-2 [9]; read-out: pGI50 (converted)): 3.31 µM; CC50 (SK-MEL-2 [9]; [11]): > 100 µM; TGI (SK-MEL-2 [9]; read-out: pTGI (converted)): 9.55 µM; growth at 100 µM (MDA-MB-435): 3%; GI50 (SK-MEL-28; read-out: GI50): 4.71 µM; CC50 (SK-MEL-28; [10]): > 100 µM; TGI (SK-MEL-28; read-out: TGI): 85.3 µM; GI50 (SK-MEL-28; read-out: pGI50 (converted)): 4.68 µM; CC50 (SK-MEL-28; [11]): > 100 µM; TGI (SK-MEL-28; read-out: pTGI (converted)): 85.1 µM; growth at 1 µM (ACHN): 99%; GI50 (HOP-62; read-out: GI50): 9.52 µM; CC50 (HOP-62; [10]): > 100 µM; TGI (HOP-62; read-out: TGI): > 100 µM; GI50 (HOP-62; read-out: pGI50 (converted)): 9.77 µM; CC50 (HOP-62; [11]): > 100 µM; TGI (HOP-62; read-out: pTGI (converted)): > 100 µM

From ChEMBL document CHEMBL4308841, “Synthesis, in vitro antiproliferative activity, and kinase inhibitory effects of pyrazole-containing diarylureas and diarylamides” (Eur J Med Chem, 2018)
